From PubChem BioAssay (NCI)
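Dose response: 5 concentrations. Exposure: 48 h. Format: 96-well plates. Endpoint: linear interpolation; highest concentration if not reached. At the GI50, growth is halved. TGI: concentration producing complete growth inhibition.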

Key:
Experiment in all cases: DTP human tumour cell line panel, 48 h
MDA-MB-435 = tested on: MDA-MB-435
U251 CNS = tested on: U251 CNS
HOP-92 NSCLC = tested on: HOP-92 NSCLC
OVCAR-4 ovarian = tested on: OVCAR-4 ovarian
UACC-257 melanoma = tested on: UACC-257 melanoma
UACC-62 melanoma = tested on: UACC-62 melanoma
LOX IMVI melanoma = tested on: LOX IMVI melanoma
RPMI-8226 leukemia = tested on: RPMI-8226 leukemia
OVCAR-5 ovarian = tested on: OVCAR-5 ovarian
M14 melanoma = tested on: M14 melanoma

Structure (SMILES)	TGI (MDA-MB-435) [µM]	TGI (U251 CNS) [µM]	TGI (HOP-92 NSCLC) [µM]	TGI (OVCAR-4 ovarian) [µM]	TGI (UACC-257 melanoma) [µM]	TGI (UACC-62 melanoma) [µM]	TGI (LOX IMVI melanoma) [µM]	TGI (RPMI-8226 leukemia) [µM]	TGI (OVCAR-5 ovarian) [µM]	TGI (M14 melanoma) [µM]	GI50 (RPMI-8226 leukemia) [µM]
Cc1ccc(N2C(=O)CC(=O)N(NC(=O)C(C)Oc3ccccc3C)C2=S)cc1 (centres undefined)	> 100	> 100	> 100	> 100	> 100	> 100	> 100	> 100	> 100	> 100	–
CCC(/C=C/c1ccccc1)=N\NC(=S)N/N=C(/C=C/c1ccccc1)CC	> 100	> 100	> 100	> 100	> 100	> 100	> 100	> 100	–	> 100	–
O=C1NC(N/N=C/C(O)C(O)C(O)C(O)CO)=N/C1=C\c1cccs1 (centres undefined)	> 100	> 100	> 100	> 100	> 100	> 100	> 100	> 100	> 100	> 100	–
Cc1ccnc2c1c(=O)c1ccccc1n2C	> 100	> 100	> 100	> 100	> 100	41.4	> 100	> 100	> 100	> 100	–
C#CCSc1cnc2ccccc2c1Sc1c[nH]c2ccccc2c1=O	> 100	50	61.2	> 100	64.4	54.1	38.9	> 100	> 100	> 100	–
CC(C)(N=NC(C)(C)C1=NCCN1)C1=NCCN1	> 100	> 100	> 100	> 100	> 100	> 100	> 100	> 100	> 100	> 100	> 100
COc1ccc(C2c3cc4c(cc3OC(N3CCOCC3)C2C)OCO4)c(OC)c1 (centres undefined)	8.83	15.5	15.9	> 100	85.1	20.9	23.8	19.9	73.9	21.2	–
COc1ccc(CN=C2Nc3ccncc3S(=O)(=O)N2c2ccccc2)cc1	80.7	> 100	> 100	> 100	> 100	> 100	> 100	42.3	> 100	> 100	–
CC1C=C(NCC2(CO)CCC2)NC(N)=N1 (centres undefined)	> 100	> 100	> 100	> 100	> 100	> 100	> 100	> 100	> 100	> 100	–
O=C(/C=C/c1ccc(Cl)c(Cl)c1)CCN1CCN(CCC(=O)/C=C/c2ccc(Cl)c(Cl)c2)CC1	55.1	49.2	64.8	46.7	> 100	45.3	33.7	> 100	39.9	35.6	–
CCOC(=O)/C=C/[C@H](O[Si](c1ccccc1)(c1ccccc1)c1ccccc1)C(C)(C)C	> 31.6	> 31.6	> 31.6	> 31.6	> 31.6	> 31.6	> 31.6	> 29	–	> 100	–
C=CC1(CBr)CCC(C(C)(C)Br)O1 (centres undefined)	26.6	15.9	28.6	28	28.9	22.3	4.34	6.11	27.9	27.7	–
O=C(c1ccco1)N1CCN(C(=O)c2ccco2)C1=S	14.1	24	23.6	35.2	23.3	19.1	14.9	7.31	39.8	40.5	–
COc1ccc(NC(C)=O)c(C(=O)CCNC(C)=O)c1	> 100	> 100	> 100	> 100	> 100	> 100	> 100	> 100	> 100	> 100	–
CCOP(=O)(OCC)C(Cc1ccccc1)N=C(c1ccccc1)c1ccccc1 (centres undefined)	27.8	28.4	27.5	38.3	27.1	26.1	24.7	> 100	28.1	30.4	–
CCOC(=O)NNC1(SC)NC(=O)c2c(cc(Cl)oc2=O)O1 (centres undefined)	17.6	25.5	4.63	18.9	30.4	25.1	6.18	7.65	25.2	11.7	–
CC(=O)NC1CCC(NC(=O)OC(C)(C)C)C(NC(=O)OC(C)(C)C)C1 (centres undefined)	> 100	> 100	> 100	> 100	> 100	> 100	> 100	> 100	> 100	> 100	–
COc1cccc2c1C(=O)c1ccc3cc(CO)cc(O)c3c1C2=O	0.359	5.41	2.84	2.03	0.412	1	5.96	5.1	3.92	1.68	–
C=CCOc1ccc(C2c3c([nH][nH]c3=O)CC(C)(O)C2C(=O)OC)cc1OC (centres undefined)	> 100	> 100	> 100	> 100	> 100	> 100	> 100	> 100	> 100	> 100	–
Cc1ccc(-c2c(C#N)c(S)n(NS(=O)(=O)c3ccccc3)c(=O)c2C#N)cc1	78.9	83.5	> 100	> 100	> 100	> 100	> 100	77.4	> 100	> 100	–
CCCCN(CCCC)c1ccc(N=Nc2ccc(S(=O)(=O)O)cc2)cc1	> 100	> 100	22.1	74.7	> 100	> 100	42.8	53.5	> 100	> 100	–
